Test results as given in US20240018153A1, “BENZENESULFONAMIDE DERIVATIVES AND USES THEREOF” (2692372 ONTARIO, INC., priority 2020, published 2024).

How the values were obtained:
[1] = biological target: EGFR (Homo sapiens (Human), UniProt P00533); experiment: HTRF KinEASE-TK kinase assay, EGFR; assay type: biochemical; settings: 3 h preincubation
Summary of the method: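 HTRF KinEASE-TK format: EGFR pre-incubated with compound at 1 and 10 uM final (0.5% DMSO) in kinase buffer with 2 mM MnCl2, 5 mM MgCl2 and 1 mM TCEP.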

[2] = biological target: T1, BTK (Homo sapiens (Human), UniProt Q06187); experiment: HTRF KinEASE-TK kinase assay, BTK; assay type: biochemical; settings: 3 h preincubation
T1 sequence (Q06187 whole entry): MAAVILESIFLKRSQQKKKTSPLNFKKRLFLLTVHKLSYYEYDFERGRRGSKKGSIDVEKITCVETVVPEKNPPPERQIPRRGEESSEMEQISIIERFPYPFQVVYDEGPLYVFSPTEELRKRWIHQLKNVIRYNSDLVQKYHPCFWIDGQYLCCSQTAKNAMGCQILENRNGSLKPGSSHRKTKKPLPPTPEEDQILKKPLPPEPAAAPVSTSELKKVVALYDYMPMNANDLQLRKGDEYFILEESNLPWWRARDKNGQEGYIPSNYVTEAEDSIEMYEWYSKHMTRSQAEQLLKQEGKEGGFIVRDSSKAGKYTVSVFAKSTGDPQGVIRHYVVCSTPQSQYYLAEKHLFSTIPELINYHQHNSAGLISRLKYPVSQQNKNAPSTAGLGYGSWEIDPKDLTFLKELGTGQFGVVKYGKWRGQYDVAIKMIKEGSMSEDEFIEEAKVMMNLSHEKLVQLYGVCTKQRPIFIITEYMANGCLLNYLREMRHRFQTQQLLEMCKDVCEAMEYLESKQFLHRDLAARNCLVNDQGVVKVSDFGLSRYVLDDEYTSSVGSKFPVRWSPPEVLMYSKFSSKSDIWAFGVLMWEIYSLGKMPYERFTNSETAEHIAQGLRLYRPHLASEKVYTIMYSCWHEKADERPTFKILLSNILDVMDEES
Summary of the method: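 BTK activity in HTRF KinEASE-TK format, buffer containing 10 mM MnCl2, 5 mM MgCl2, 1 uM ATPγS and 1 mM TCEP; 45 min reaction with biotinylated substrate and ATP.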

[3] = biological target: T1, BTK; experiment: Ramos RA1 cell lysis and immunoassay, phospho-BTK (Y223) inhibition; assay type: cell-based; design: key: X: BTK bound and autophosphoration of BTK inhibited in cells; settings: RAMOS cells, compound concentration 1 μM
Summary of the method: (§1)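 Ramos RA1 cells treated with compound or DMSO for 24 h at 37° C., lysed in RIPA, analysed by Simple Western. Total BTK normalised to β-actin, pBTK (Y223) to total-protein reagent; both expressed relative to DMSO control.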

[4] = biological target: T1, BTK; experiment: Ramos RA1 cell lysis and immunoassay, total BTK degradation; assay type: cell-based; design: key to % BTK degradation (RAMOS, 24 h): Y: BTK bound in cells and BTK degradation occurred; concentration or dose not given beside the values; settings: RAMOS cells
Summary of the method: as §1

[5] = biological target: BMX (Homo sapiens (Human), UniProt P51813); experiment: HTRF KinEASE-TK kinase assay, BMX; assay type: biochemical; settings: 3 h preincubation
BMX, sequence (P51813 whole entry): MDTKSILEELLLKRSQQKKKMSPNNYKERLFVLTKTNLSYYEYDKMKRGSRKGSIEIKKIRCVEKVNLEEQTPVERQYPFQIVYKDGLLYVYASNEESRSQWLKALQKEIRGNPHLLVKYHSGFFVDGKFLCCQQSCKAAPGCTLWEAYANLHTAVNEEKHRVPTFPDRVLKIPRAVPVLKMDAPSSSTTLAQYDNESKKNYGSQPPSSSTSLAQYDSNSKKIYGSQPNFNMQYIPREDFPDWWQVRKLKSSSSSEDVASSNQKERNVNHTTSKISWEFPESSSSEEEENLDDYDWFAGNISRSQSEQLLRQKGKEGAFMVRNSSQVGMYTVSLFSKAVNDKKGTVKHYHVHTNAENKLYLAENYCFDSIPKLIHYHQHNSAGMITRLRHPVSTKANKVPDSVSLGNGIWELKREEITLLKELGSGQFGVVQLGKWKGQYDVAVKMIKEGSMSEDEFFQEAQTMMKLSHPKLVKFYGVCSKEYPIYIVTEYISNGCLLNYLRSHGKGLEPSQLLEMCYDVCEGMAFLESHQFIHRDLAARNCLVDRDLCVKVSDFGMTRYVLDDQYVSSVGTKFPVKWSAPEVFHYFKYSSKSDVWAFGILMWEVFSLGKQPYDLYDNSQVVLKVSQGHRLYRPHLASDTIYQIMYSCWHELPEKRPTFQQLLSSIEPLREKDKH
Summary of the method: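 Purchased BMX (0.333 ng/ul, 3.03 nM) was preincubated with or without inhibitor for 3 h at room temperature, then biotinylated substrate and ATP were added. Reactions were stopped with EDTA-containing buffer holding 31.25 nM SA-XL665 and Eu-antibody, and after 60 min phosphorylation was read as the HTRF 665/620 nm emission ratio.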

[6] = biological target: JAK3 (Homo sapiens (Human), UniProt P52333); experiment: HTRF KinEASE-TK kinase assay, JAK3; assay type: biochemical
JAK3, sequence (P52333 781-1124): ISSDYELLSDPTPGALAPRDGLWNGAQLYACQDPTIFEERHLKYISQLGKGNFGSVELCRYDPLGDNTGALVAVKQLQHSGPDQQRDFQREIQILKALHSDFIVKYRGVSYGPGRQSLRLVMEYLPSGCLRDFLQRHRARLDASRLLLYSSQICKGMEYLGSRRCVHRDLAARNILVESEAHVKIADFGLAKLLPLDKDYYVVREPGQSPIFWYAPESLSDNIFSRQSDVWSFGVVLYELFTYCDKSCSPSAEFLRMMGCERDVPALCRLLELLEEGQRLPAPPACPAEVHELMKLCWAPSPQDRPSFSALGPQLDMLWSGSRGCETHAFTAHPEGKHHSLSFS
Summary of the method: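 Promega JAK3 at 0.21 nM was preincubated with inhibitor for 3 h at room temperature before biotinylated substrate and ATP were added. The reaction was stopped with EDTA detection buffer containing 31.25 nM SA-XL665 and Eu-antibody. After 60 min, the HTRF 665/620 nm emission ratio reflected substrate phosphorylation.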

[7] = biological target: FGFR4 (Homo sapiens (Human), UniProt P22455); experiment: HTRF KinEASE-TK kinase assay, FGFR4; assay type: biochemical
FGFR4, sequence (P22455 22-802): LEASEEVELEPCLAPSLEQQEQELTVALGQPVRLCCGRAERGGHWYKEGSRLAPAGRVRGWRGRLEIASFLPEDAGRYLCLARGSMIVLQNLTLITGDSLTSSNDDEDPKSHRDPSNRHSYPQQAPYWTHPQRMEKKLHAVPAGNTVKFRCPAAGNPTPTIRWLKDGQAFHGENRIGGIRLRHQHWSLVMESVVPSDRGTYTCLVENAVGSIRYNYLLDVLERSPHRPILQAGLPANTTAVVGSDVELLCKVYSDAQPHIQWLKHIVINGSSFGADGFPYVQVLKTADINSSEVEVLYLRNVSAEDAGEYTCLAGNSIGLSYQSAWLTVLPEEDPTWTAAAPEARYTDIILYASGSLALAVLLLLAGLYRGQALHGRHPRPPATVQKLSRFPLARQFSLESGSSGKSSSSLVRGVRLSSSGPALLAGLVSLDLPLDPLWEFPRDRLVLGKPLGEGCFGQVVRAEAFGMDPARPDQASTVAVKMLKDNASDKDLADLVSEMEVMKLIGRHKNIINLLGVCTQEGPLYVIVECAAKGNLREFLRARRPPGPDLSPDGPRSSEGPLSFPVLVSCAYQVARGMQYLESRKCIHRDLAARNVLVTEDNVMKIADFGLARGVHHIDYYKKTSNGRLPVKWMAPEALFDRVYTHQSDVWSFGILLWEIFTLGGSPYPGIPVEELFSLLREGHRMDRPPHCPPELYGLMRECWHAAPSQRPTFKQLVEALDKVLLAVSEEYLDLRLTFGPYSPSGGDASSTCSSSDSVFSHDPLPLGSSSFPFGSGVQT
Summary of the method: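 Promega FGFR4 at 0.333 ng/ul (5.12 nM) preincubated with or without inhibitor for 3 h at room temperature, then reaction started with biotinylated substrate and ATP. Stopped with EDTA detection buffer containing 31.25 nM SA-XL665 and Eu-antibody; after 60 min, HTRF 665/620 nm ratio read as substrate phosphorylation.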

EGFR, sequence (P00533 25-1210): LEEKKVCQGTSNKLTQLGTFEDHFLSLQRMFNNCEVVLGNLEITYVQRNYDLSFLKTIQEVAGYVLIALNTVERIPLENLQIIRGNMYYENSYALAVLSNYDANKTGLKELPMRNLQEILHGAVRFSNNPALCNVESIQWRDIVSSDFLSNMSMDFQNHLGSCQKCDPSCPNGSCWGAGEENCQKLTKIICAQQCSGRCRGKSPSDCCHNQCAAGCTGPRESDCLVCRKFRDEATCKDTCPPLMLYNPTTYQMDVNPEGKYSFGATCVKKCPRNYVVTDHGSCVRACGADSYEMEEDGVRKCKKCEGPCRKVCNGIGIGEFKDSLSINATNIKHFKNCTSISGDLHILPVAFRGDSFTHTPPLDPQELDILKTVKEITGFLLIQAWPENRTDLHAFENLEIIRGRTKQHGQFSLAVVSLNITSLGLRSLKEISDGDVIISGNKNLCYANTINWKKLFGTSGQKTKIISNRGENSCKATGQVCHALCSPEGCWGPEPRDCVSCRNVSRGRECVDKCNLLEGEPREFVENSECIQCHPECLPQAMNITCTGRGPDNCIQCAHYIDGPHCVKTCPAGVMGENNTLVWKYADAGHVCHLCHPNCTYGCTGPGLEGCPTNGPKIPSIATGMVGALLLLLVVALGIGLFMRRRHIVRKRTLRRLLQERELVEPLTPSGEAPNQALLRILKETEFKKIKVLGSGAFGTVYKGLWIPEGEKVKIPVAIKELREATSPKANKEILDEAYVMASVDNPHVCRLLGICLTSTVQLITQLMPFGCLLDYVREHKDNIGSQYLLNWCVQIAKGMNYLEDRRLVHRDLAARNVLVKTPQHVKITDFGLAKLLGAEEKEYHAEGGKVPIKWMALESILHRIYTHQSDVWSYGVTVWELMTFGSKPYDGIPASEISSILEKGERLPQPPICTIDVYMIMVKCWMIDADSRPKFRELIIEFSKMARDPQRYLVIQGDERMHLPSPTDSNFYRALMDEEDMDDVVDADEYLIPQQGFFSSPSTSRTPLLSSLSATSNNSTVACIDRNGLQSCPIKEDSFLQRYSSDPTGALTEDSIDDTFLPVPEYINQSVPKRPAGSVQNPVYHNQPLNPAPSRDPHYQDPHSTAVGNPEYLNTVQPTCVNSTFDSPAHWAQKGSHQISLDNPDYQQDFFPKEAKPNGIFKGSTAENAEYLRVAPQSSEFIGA

remaining activity at 1 µM ([1]; 1 μM compound, read-out: % EGFR Remaining activity vs DMSO (1 μM, 3 h)): > 90%
remaining activity at 10 µM ([1]; 10 μM compound, read-out: % EGFR Remaining activity vs DMSO (10 μM, 3 h)): > 90%
remaining activity at 1 µM ([2]; 1 μM compound, read-out: % BTK Remaining activity vs DMSO (1 μM, 3 h)): < 50%
remaining activity at 10 µM ([2]; 10 μM compound, read-out: % BTK Remaining activity vs DMSO (10 μM, 3 h)): < 50%
pBTK inhibition (RAMOS, 24 h) [3]: X
% BTK degradation (RAMOS, 24 h) [4]: Y
remaining activity at 1 µM ([5]; 1 uM compound): < 50%
remaining activity at 10 µM ([5]; 10 uM compound): < 50%
remaining activity at 1 µM ([6]; read-out: % JAK3 Remaining activity vs DMSO (1 μM, 3 h)): 50 to 90%
remaining activity at 10 µM ([6]; read-out: % JAK3 Remaining activity vs DMSO (10 μM, 3 h)): < 50%
remaining activity at 1 µM ([7]; read-out: % FGFR4 Remaining activity vs DMSO (1 μM, 3 h)): < 50%
remaining activity at 10 µM ([7]; read-out: % FGFR4 Remaining activity vs DMSO (10 μM, 3 h)): < 50%
Structure (SMILES): COCCOc1ccc(Nc2ncc(F)c(Nc3cccc(Nc4c(F)c(F)c(F)c(F)c4S(C)(=O)=O)c3)n2)cc1 [Compound I-64, 5-fluoro-N^2-(4-(2-methoxyethoxy)phenyl)-N^4-(3-((2,3,4,5-tetrafluoro-6-(methylsulfonyl)phenyl)amino)phenyl)pyrimidine-2,4-diamine]
